The results in this text go back to patent US20130237610A1, “DYNAMIC BALANCING OF AUTONOMIC NERVOUS SYSTEM THROUGH VITAMIN MK-7” (priority 2010, published 2013).

The subject of one data set is rats. Put plainly: Chronic toxicity study, ECG of rats. It counts as in vivo. As to conditions: rat ECG. An excerpt: In another study on animal model during chronic toxicity study, it was discovered that MK-7 produces significant changes in ECG of rats. This discovery during basic pharmacology studies on MK-7 was investigated for its effect on Cardio Vascular System. It is during this study the investigator discovered the following findings (FIGS. 5 and 6).
The main parameter which was observed during chronic toxicity studies in rat ECG was the prolongation of QT interval.

A further data set relates to healthy male volunteers. The experiment in a line: ANS activity (sympathovagal balance) measured by ANSiscope in healthy male volunteers. Conditions: for general and systemic examination, Blood Pressure (Supine), pulse: 350 μg per day, 2 months; for percentage of ANS dysfunction / stage of ANS dysfunction: 1 cap per day of 350 μg, end of 2 months. It counts as in vivo, human. The procedure:
[…] ANS activity was measured and printed out in a graph form by the ANSiscope™, manufactured by DyAnsys a US based company. The instrument is US FDA approved patented instrument. This instrument assessed the autonomic function by calculating 500 Heart beats/RR intervals. After assessing this, the instrument will analyze the level of the dysfunction and the degree of autonomic neuropathy. For this reason they have classified autonomic dysfunction in 5 stages, namely Healthy (H), Early (E), Late (L), Advanced (A) and Most Advanced (MA). The percentage calculation values demarcating groups are: −11.5% to 11.5%: healthy group, 13.5% to 20%: early group, 23% to 50.99%: late group, 51% to 100%: advanced group and above falls in Most advance group.
The study parameters assessed were sympathetic and parasympathetic tone, change in blood pressure (orthostatic intolerance, measured at right. brachial artery), pulse (assessed by measuring the pulse at right. radial artery) and physical and general examination. Study was performed on subjects in relaxed supine position without any external stimulation, usually 2 hrs. after breakfast during morning time for 2 consecutive months.
Subjects who have Blood pressure beyond the range of 140/90 (supine) and 100/70 (standing) mm Hg, and Sugar Fasting more than 250 mg % and with any major illness are ruled out of study. All subjects were checked for baseline parameters on 0 day. Vitamin K2-7 (MK-7) in dose of 350 μg was administered on 3rd day after the baseline reading. MK-7 was continued for 2 months. Readings were taken on 3rd day, 15th day, 28st day, 50th day, 56th day and at 62nd day.

For another data set, the system named is ISO injected rats. Put plainly: Isoproterenol (ISO) induced cardiac injury model. It counts as in vivo, rat. How it is done:
During the yet another study conducted to assess the cardioprotective effect of vitamin K2-7, inventors of the current invention observe that the vitamin K2-7 improves the cardiac output parameters. Isoproterenol (ISO) induced cardiac injury model was selected for the study. It was observed that ISO induced cardiac output decrease in all the dose levels i.e. at 90 μg/kg, 450 μg/kg and 900 μg/kg. […] This effects was non-linear and was enhanced in 900 μg/kg dose.
Effect of vitamin K2-7 on the left cardiac work has been evaluated in the same study. It was observed that administration of ISO leads to marked decrease in left cardiac work when measured 48 h after ISO injection in comparison to pre ISO level i.e. control.
In the same study it was also observed that vitamin K2-7 enhances the High Density Lipoprotein (HDL) level in all the dose levels studied i.e. at 90 μg/kg, 450 μg/kg and 900 μg/kg. Isoproterenol (ISO) induced cardiac injury model was selected for the study. […] HDL cholesterol level for the treated group increased in comparison to the ISO controlled group. The observed increase was greater with respect to the dose level increased.

On to `CC(C)=CCC/C(C)=C/CC/C(C)=C/CC/C(C)=C/CC/C(C)=C/CC/C(C)=C/CC/C(C)=C/CC1=C(C)C(=O)c2ccccc2C1=O` [MK-7], for which, in the data set with rats, the PR interval entry was “not affected to significant extent”. In the data set on rats, the QTc change result was “moderate non-significant shortening”. Moreover, the heart rate entry in the data set on rats is on record as “no increase”. The “prolongation of QTc” value in the data set on rats is “did not cause any prolongation”. Moreover, in the data set with rats (100, 500, 1000 μg/kg), the QT interval result is recorded as “remained unaffected”. Moreover, the QRS interval result in the data set on rats (500, 1000 μg/kg) was “significant shortening”. Moreover, in the data set with rats (500, 1000 μg/kg), the RR interval result was “significant prolongation”. Also, in the data set with healthy male volunteers (350 μg for 2 months), the “other parameters (blood pressure, pulse, physical and general examination)” value was “remained unaffected”. Besides, the “general and systemic examination, Blood Pressure (Supine), pulse” value with healthy male volunteers (person one) and with healthy male volunteers (person two) was “in normal range without any change from base line records” in each case. Besides, the parasympathetic activity entry in the data set with healthy male volunteers (350 μg, after 2 months of therapy) is listed as “little effect”. In the data set with healthy male volunteers (350 μg, after 2 months of therapy, initially elevated), the sympathetic activity entry is listed as “marked normalization”. For the same compound, the “percentage of ANS dysfunction” value in the data set on healthy male volunteers (person one, baseline 61%) worked out at 31%; in the data set on healthy male volunteers (person two, baseline 25%) it was 21%. The “stage of ANS dysfunction” value in the data set on healthy male volunteers (person one, baseline 'Advance stage') is reported as “Early (13.5% to 20%: early group)”; in the data set with healthy male volunteers (person two, baseline 'Late stage'), “Early (13.5% to 20%: early group)”. The “ISO induced cardiac output decrease” value is “reversed” in the data set on ISO injected rats (90 μg/kg and 450 μg/kg); “enhanced” with ISO injected rats (900 μg/kg). For the same compound, in the data set with ISO injected rats (900 μg/kg vs other treatment groups), the “ISO induced left cardiac work decrease, reversal” value was “higher than other treatment groups”. Besides, the “ISO induced left cardiac work decrease” value in the data set on ISO injected rats (90, 450 and 900 μg/kg, 48 h after ISO injection, vs ISO control) is “reversed to a great extent”. Further, the HDL cholesterol level entry with ISO injected rats (90, 450 and 900 μg/kg, vs ISO control group) is reported as “increased”. The blood sugar entry in the data set on ISO injected rats (within 12 days, 90, 450 and 900 μg/kg) is “reducing blood sugar”.
